Tests used:
[1] = target: Glucorticoid Receptor (GR) (Homo sapiens, UniProt P04150); assay: Radioligand binding assay, GR; conditions: MAP4343 10 μM; 3 nM [^3H] Dexamethasone; Human HeLa S3 cells
Description: Binding affinity of 3-methoxy-PREG (MAP4343) for receptors of steroid hormones was evaluated using radioligand binding assays.

MAP2 = MAP2 (Homo sapiens, UniProt P11137); assay: Binding (affinity) by displacement of PREG-^3H
Description: Binding (affinity) is measured by the displacement of PREG-^3H.

[2] = target: purified tubulin and MAP2 (Homo sapiens, UniProt P11137); assay: MAP2-induced polymerization of microtubules in vitro (optical density at 345 nm); type: biochemical
Description: Purified MAP2 and tubulin are mixed in the presence of GTP at 4° C. in a spectrophotometer cuvette. Polymerization is induced by heating at 37° C. and is followed by the increase in optical density (OD) which indicates the quantity of polymers formed.
This in vitro test measures the effect of molecules on the MAP2-induced polymerization of microtubules. This polymerization occurs when MAP2 proteins and tubulin are mixed at adequate concentrations in the presence of GTP. It is accompanied by an increase in optical density measured at 345 nm for 15 to 30 minutes with a UNICON spectrophotometer thermostated at 37° C. (FIG. 1).
Activity is measured by the increase in optical density at 345 nm of a mixture of purified tubulin and MAP2, incubated at 37° C. in the presence of GTP.

GFAP = GFAP immunostaining after Lateral Fluid Percussion (LFP); type: in vivo, rat; conditions: first injection 2 hours post-trauma, day 35, no statistical analysis
Description: FIG. 24: Quantification of GFAP immunostaining in LFP-injured animals. (A) GFAP immunostaining in injured cortex of LFP-injured animals injected with vehicle (sesame oil), or 3-methoxy-PREG (MAP4343) at 10 mg/kg or 20 mg/kg, with first injection at 2 hours post-trauma. (B) GFAP immunostaining in injured and uninjured thalamus of LFP-injured animals injected with vehicle (sesame oil), or 3-methoxy-PREG (MAP4343) at 10 mg/kg or 20 mg/kg, with first injection at 2 hours post-trauma. No statistical analysis has been performed.
After anesthesia induction, the animal was placed on a stereotaxic frame. […]
Trauma was induced by a fluid percussion device (Custom Design and Manufacturing, United Kingdom) (Besson et al., 2003): it is a cylindrical tank (60 cm long), with a piston on one side, over which a hammer exercises a constraint, and a male Luer-Lock on the other side. […] The amplitude of each shock wave was measured via a pressure transducer connected to the terminal portion of the device. The pressure signal was recorded on an oscilloscope. […]
After mounting on Superfrost slides, frozen sections were dried for 90 minutes at room temperature and stored at −80° C. until use. […] Immunostaining was quantitatively assessed by optical density measurements directly from the section image (Image J). […]

[3] = Pharmacokinetics, GC/MS assay in brain and spinal cord; type: in vivo, rat; conditions: rats, 12 mg/kg subcutaneous in sesame oil; 1, 4, 8, 24 hours
Description: FIG. 9: Kinetics of the appearance of 3-methoxy-PREG (43B) in rat brain and spinal cord following subcutaneous injection of 43B (12 mg/kg) in a sesame oil solution.
The pharmacokinetics of the molecules tested in vivo are evaluated using gas chromatography/mass spectrometry (GC/MS) assays.

[4] = MAP4343 in the brain after TBI (LC-MS/MS); type: in vivo, rat; conditions: 20 mg/kg single injection 2 h after TBI; 4 h after injection; CHI, LFP, CCI models
Description: FIG. 16: 3-methoxy-PREG (MAP4343) concentrations in the brain 4 h after a single injection of MAP4343 (20 mg/kg, injected 2 h after TBI or sham-surgery).
MAP4343 was dissolved in sesame oil and injected subcutaneously. Two distinct doses of MAP4343 (10 and 20 mg/kg) were tested in each model. The injection took place 2 h after trauma.
In order to establish whether TBI modifies the passage of MAP4343 into the brain, MAP4343 was measured by liquid chromatography associated to tandem mass spectrometry (LC-MS/MS) in the brain of animals sacrificed 6 h after CHI, LFP or CCI (4 h after MAP4343 single injection).
In order to establish whether TBI modifies the passage of 3-methoxy-PREG (MAP4343) into the brain, MAP4343 was measured by liquid chromatography coupled to tandem mass spectrometry LC-MS/MS in the brain of animals sacrificed 6 h after CHI, LFP or CCI (4 h after MAP4343 injection).

[5] = 40 μM, compared to control kinetics with solvent alone

Chain of purified tubulin and MAP2 (P11137 whole entry): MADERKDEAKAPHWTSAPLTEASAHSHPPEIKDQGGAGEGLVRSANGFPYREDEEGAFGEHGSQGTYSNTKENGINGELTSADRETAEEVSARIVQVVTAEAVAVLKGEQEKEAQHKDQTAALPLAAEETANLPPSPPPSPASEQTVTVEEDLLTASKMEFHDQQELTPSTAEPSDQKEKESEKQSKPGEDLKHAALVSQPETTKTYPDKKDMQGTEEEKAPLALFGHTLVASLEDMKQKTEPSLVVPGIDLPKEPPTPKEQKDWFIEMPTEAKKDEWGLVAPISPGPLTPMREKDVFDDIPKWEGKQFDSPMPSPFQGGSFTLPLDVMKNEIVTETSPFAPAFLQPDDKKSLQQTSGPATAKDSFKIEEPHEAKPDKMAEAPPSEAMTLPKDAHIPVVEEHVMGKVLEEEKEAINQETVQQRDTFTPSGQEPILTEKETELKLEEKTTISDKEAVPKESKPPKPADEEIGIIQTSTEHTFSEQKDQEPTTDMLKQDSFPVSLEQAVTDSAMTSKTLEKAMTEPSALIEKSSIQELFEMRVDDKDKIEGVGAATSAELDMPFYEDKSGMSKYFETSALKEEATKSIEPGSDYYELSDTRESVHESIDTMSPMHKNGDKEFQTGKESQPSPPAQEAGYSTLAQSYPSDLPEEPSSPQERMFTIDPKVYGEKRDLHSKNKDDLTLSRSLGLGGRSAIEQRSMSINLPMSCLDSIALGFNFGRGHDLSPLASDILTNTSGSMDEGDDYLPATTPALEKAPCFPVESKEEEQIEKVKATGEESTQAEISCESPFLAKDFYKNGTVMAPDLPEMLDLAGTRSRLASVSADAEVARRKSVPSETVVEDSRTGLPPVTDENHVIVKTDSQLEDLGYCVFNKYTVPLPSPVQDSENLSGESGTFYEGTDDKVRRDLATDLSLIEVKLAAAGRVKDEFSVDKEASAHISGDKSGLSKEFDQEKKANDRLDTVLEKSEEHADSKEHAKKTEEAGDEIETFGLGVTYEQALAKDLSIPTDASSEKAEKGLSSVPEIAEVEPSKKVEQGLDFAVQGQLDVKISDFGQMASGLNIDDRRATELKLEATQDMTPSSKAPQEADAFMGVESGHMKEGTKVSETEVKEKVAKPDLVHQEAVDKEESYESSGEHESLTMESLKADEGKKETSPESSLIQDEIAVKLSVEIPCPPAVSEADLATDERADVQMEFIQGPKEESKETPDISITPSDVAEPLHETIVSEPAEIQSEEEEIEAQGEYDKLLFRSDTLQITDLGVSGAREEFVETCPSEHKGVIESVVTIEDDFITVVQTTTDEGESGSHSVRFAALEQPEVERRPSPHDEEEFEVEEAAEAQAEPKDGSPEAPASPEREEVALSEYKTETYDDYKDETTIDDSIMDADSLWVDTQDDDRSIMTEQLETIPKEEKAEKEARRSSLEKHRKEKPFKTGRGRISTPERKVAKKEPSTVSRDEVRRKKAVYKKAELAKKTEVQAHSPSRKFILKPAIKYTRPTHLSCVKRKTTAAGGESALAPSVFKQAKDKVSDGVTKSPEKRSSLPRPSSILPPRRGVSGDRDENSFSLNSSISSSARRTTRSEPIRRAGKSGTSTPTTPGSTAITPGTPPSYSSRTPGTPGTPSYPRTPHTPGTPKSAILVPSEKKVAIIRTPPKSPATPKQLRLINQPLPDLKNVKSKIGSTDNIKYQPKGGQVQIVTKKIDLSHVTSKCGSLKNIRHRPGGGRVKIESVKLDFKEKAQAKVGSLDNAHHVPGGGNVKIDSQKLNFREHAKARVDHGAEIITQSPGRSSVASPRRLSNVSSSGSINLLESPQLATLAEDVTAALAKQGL
Chain of Glucorticoid Receptor (GR) (P04150 whole entry): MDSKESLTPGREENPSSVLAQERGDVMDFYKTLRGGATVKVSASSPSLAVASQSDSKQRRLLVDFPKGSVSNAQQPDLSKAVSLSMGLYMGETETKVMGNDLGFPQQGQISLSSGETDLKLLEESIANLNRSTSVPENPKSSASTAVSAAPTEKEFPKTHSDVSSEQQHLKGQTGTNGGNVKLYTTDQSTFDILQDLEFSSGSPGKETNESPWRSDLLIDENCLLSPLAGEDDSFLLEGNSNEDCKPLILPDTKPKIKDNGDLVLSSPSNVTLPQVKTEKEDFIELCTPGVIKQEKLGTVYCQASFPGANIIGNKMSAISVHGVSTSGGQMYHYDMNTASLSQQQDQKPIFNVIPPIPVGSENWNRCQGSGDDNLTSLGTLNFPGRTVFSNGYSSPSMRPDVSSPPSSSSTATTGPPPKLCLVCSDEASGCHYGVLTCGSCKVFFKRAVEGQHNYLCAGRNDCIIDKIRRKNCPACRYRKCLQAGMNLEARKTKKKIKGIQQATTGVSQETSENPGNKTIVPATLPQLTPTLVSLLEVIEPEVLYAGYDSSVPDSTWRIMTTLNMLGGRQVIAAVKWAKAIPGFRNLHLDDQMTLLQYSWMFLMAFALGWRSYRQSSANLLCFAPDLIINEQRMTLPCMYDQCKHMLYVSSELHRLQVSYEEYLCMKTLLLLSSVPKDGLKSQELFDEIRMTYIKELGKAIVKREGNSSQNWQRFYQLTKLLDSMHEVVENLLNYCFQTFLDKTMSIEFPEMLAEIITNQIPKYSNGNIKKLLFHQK
Chain of MAP2 (P11137 whole entry): as the sequence (P11137 whole entry) above

SMILES: CO[C@H]1CC[C@@]2(C)C(=CC[C@H]3[C@@H]4CC[C@H](C(C)=O)[C@@]4(C)CC[C@@H]32)C1 [3-methoxy-PREG, 3β-methoxy-pregna-5-ene-20-one]
- % inhibition of specific binding [1]: < 25%
- Affinity (index of binding) (MAP2): 100% of PREG
- Lag time of microtubule polymerization [2, 5]: decreased
- polymerization rate and quantity of microtubules [2, 5]: clearly increase
- effect on microtubule polymerization ([2]; MAP2 and tubulin with GTP, 37° C.): activates microtubule polymerization
- Activity (increase in optical density at 345 nm) ([2]; purified tubulin and MAP2, 37° C., GTP): 100% of PREG
- astrocytes GFAP immunoreactivity in the injured cortex (GFAP; 10 mg/kg or 20 mg/kg): highly decreased
- astrocytes immunoreactivity (GFAP) in the injured thalamus (GFAP; especially Dose2 (20 mg/kg)): strongly decreases astrocytes immunoreactivity
- penetration into spinal cord and brain [3]: penetrates rapidly into the spinal cord and the brain
- MAP4343 concentrations in the brain [4]: concentrations of MAP4343 of significant therapeutic interest reach the brain
